Experimental data as given in patent US20230192617A1, “AZABICYCLIC(THIO)AMIDES AS FUNGICIDAL COMPOUNDS” (Bayer CropScience Aktiengesellschaft, priority 2020, published 2023).

Experiments:
[1] = Measurement of Log P values by HPLC on reversed phase columns (EEC directive 79/831 Annex V.A8); type: physicochemical; conditions: reversed phase HPLC column, method [a]: LC-UV, acidic range, 0.1% formic acid in water and acetonitrile as eluent
How it was run: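 Log P derived from retention on reversed-phase columns (EEC directive 79/831 Annex V.A8), LC-UV, acetonitrile gradient 10% to 95% against water containing 0.1% formic acid, 0.001 M ammonium acetate, or 0.1% phosphoric acid; several values per method separated by "+".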

Alternaria brassicae = assay: In vivo preventive test on Alternaria brassicae (leaf spot on radish or cabbage); conditions: 500 ppm of active ingredient, preventive spray on radish or cabbage, evaluated 3 to 4 days after inoculation, read-out: efficacy
How it was run: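 Protective spray on young radish or cabbage: actives in water diluted from DMSO/acetone/Tween 80, with solvent-only controls. Leaves were challenged after 24 h with a spore suspension, and plants were held at 100% RH, 20 °C for 3 to 4 days.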

Botrytis cinerea [2] = assay: In vivo preventive test on Botrytis cinerea (grey mould); conditions: 500 ppm of active ingredient, preventive spray on gherkin or cabbage, evaluated 4 to 5 days after inoculation, read-out: efficacy
How it was run: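 Preventive spray on cabbage or gherkin seedlings, with compound formulated in DMSO/acetone/Tween 80 and water-diluted, preceded spore inoculation by 24 hours. Cabbage was held 4 to 5 days at 20° C., 100% relative humidity; gherkin 4 to 5 days at 17° C., 90% relative humidity.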

Pyrenophora teres [3] = assay: In vivo preventive test on Pyrenophora teres (net blotch on barley); conditions: 240 h, 500 ppm of active ingredient, preventive spray on barley, evaluated 10 days after inoculation, read-out: efficacy
Experimental: B-3. In Vivo Preventive Test on Pyrenophora Teres (Net Blotch on Barley) [table] The active ingredients were made soluble and homogenized in a mixture of Dimethyl sulfoxide/Acetone/Tween® 80 and then diluted in water to the desired concentration. The young plants of barley were treated by spraying the active ingredient prepared as described above. Control plants were treated only with an aqueous solution of Acetone/Dimethyl sulfoxide/Tween® 80. After 24 hours, the plants were contaminated by spraying the leaves with an aqueous suspension of Pyrenophora teres spores. The contaminated barley plants were incubated for 48 hours at 20° C. and at 100% relative humidity and then for 8 days at 20° C. and at 70-80% relative humidity.

Sphaerotheca fuliginea = assay: In vivo preventive test on Sphaerotheca fuliginea (powdery mildew on cucurbits); conditions: Podosphaera fuliginea, 192 h; 500 ppm of active ingredient; preventive spray on gherkin; evaluated 8 days after inoculation; read-out: efficacy
How it was run: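 This is a preventive spray test on gherkin seedlings, with compound formulated in DMSO/acetone/Tween 80 in water and solvent-only controls. Spore inoculation followed one day after treatment. Incubation lasted 8 days at 20 °C, 70–80% RH.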

[4] = tested on: Colletotrichum lindemuthianum; assay: In vivo preventive test on Colletotrichum lindemuthianum (leaf spot on bean); conditions: 168 h, 500 ppm of active ingredient, preventive spray on bean, evaluated 7 days after inoculation, read-out: efficacy
How it was run: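 Young bean plants sprayed with compound in DMSO/acetone/Tween 80 diluted in water; solvent-only controls. Inoculated 24 h later with C. lindemuthianum spore suspension, then kept 24 h at 20 °C/100% RH and 6 days at 20 °C/90% RH.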

Alternaria alternata = Alternaria alternata in vitro cell test; type: cell-based; conditions: 120 h, 20 ppm of active ingredient, liquid culture, 5 days incubation, spectrometric measurement of mycelium growth, read-out: efficacy (inhibition of fungal growth)
How it was run: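 Spectrometric readout of mycelial growth after 5-day incubation gauged compound effects on spore germination and growth of A. alternata in liquid medium. Compounds were delivered in DMSO at ≤1% final. Absorbance was compared with untreated controls to give inhibition.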

[5] = tested on: Colletotrichum lindemuthianum; assay: B-8. Colletotrichum lindemuthianum in vitro cell test; type: cell-based; conditions: 144 h, 20 ppm of active ingredient, 6 days incubation, liquid culture, absorbance, read-out: efficacy (inhibition of fungal growth)
How it was run: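 Liquid-culture germination/growth test: compounds in ≤1% final DMSO were added to spore-containing medium. Fungal growth was quantified spectrophotometrically after 6 days of incubation and expressed as inhibition versus untreated controls.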

Pyrenophora teres [6] = assay: B-10. Pyrenophora teres in vitro cell test; type: cell-based; conditions: 144 h, 20 ppm of active ingredient, 6 days incubation, liquid culture, absorbance, read-out: efficacy (inhibition of fungal growth)
How it was run: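 Liquid-culture assay on a P. teres spore suspension with compounds added to the medium from DMSO solutions, final DMSO ≤1%. Mycelium growth read spectrometrically after 6 days. Inhibition calculated from absorbance against untreated control wells.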

Botrytis cinerea [7] = assay: B-11. Botrytis cinerea in vitro cell test; type: cell-based; conditions: 144 h, 20 ppm of active ingredient, 6 days incubation, liquid culture, absorbance, read-out: efficacy (inhibition of fungal growth)
How it was run: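 B. cinerea spores were grown in liquid culture with compound (DMSO ≤1% final). Mycelium growth was measured spectrometrically after 6 days, with inhibition taken as absorbance relative to untreated control wells.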

Septoria tritici = assay: B-9. Septoria tritici in vitro cell test; type: cell-based; conditions: Zymoseptoria tritici, 168 h; 20 ppm of active ingredient; 7 days incubation; liquid culture, absorbance; read-out: efficacy (inhibition of fungal growth)
Experimental: B-9. Septoria tritici In Vitro Cell Test [table] Fungicides were solubilized in DMSO and the solution used to prepare the required range of concentrations. The final concentration of DMSO used in the assay was ≤1%. A spore suspension of S. tritici was prepared and diluted to the desired spore density. Fungicides were evaluated for their ability to inhibit spore germination and mycelium growth in liquid culture assay. The compounds were added in the desired concentration to the culture medium with spores. After 7 days incubation, fungi-toxicity of compounds was determined by spectrometric measurement of mycelium growth. Inhibition of fungal growth was determined by comparing the absorbance values in wells containing the fungicides with the absorbance in control wells without fungicides.

| SMILES | chromatographic logP [1] | pest or weed control at 500 ppm (Alternaria brassicae) [%] | pest or weed control at 500 ppm (Botrytis cinerea [2]) [%] | pest or weed control at 500 ppm (Pyrenophora teres [3]) [%] | pest or weed control at 500 ppm (Sphaerotheca fuliginea) [%] | pest or weed control at 500 ppm [4] [%] | inhibition at 20 ppm (Alternaria alternata) [%] | inhibition at 20 ppm [5] [%] | inhibition at 20 ppm (Pyrenophora teres [6]) [%] | inhibition at 20 ppm (Botrytis cinerea [7]) [%] | inhibition at 20 ppm (Septoria tritici) [%] |
| --- | --- | --- | --- | --- | --- | --- | --- | --- | --- | --- | --- |
| Cc1ccc(C(F)(F)CNC(=O)c2c(Oc3cccc(C4CC4)c3F)cnc3ccccc23)c(C)c1 [I-224] | 4.63 | 80 to 89 | 90 to 100 | 70 to 79 | 90 to 100 | 90 to 100 | 90 to 100 | 90 to 100 | 90 to 100 | 90 to 100 | – |
| Cc1ccc(C(F)CNC(=O)c2c(Oc3cccc(C(F)(F)F)c3)nnc3c2CCC3)c(C)c1 (centres unmarked) [I-138] | 3.84 | – | – | – | – | – | 90 to 100 | 90 to 100 | 90 to 100 | 90 to 100 | 90 to 100 |
| Cc1cc(Br)ccc1[C@@H](F)CNC(=O)c1c(Oc2cccc(Cl)c2)nnc2ccccc12 (racemic) [I-055] | 4.33 | 90 to 100 | 90 to 100 | 80 to 89 | 90 to 100 | 70 to 79 | 90 to 100 | 90 to 100 | – | 90 to 100 | – |
| Cc1ccc(CCNC(=O)c2c(Oc3cccc(C(F)(F)F)c3)cnc3ccoc23)c(C)c1 [I-068] | 4.04 | 90 to 100 | 90 to 100 | 80 to 89 | 90 to 100 | 90 to 100 | 90 to 100 | 90 to 100 | 90 to 100 | 90 to 100 | – |
| O=C(NC[C@H](F)c1ccc(C2CC2)cc1Cl)c1c(Oc2cccc(Cl)c2)nnc2ccccc12 (racemic) [I-054] | 4.47 | 90 to 100 | 90 to 100 | 80 to 89 | 70 to 79 | 90 to 100 | 90 to 100 | 90 to 100 | – | 90 to 100 | – |
| Cc1ccc(C(F)CNC(=O)c2c(Oc3cccc(Cl)c3F)nnc3c2CCC3)c(C)c1 (centres unmarked) [I-236] | 3.73 | 90 to 100 | 90 to 100 | 90 to 100 | 90 to 100 | 90 to 100 | 80 to 89 | – | 90 to 100 | 90 to 100 | – |
| Cc1ccc(C(F)(F)CNC(=O)c2c(Oc3cccc(C(F)(F)F)c3)nnc3c2CCCCC3)c(C)c1 [I-113, N-[2-(2,4-dimethylphenyl)-2,2-difluoro-ethyl]-3-[3-(trifluoro-methyl)phenoxy]-6,7,8,9-tetrahydro-5H-cyclohepta[c]pyridazine-4-carboxamide] | 4.28 | 90 to 100 | 90 to 100 | 70 to 79 | 90 to 100 | 80 to 89 | 90 to 100 | 90 to 100 | – | – | – |
| Cc1cc(Cl)ccc1C(F)(F)CNC(=O)c1c(Oc2cccc(C(F)F)c2)nnc2c1CCCC2 [I-163] | – | – | – | – | – | – | 90 to 100 | 90 to 100 | 90 to 100 | 90 to 100 | 90 to 100 |
| Cc1ccc(CCNC(=O)c2c(Oc3cccc(C(F)(F)F)c3)nnc3c2OCCO3)c(C)c1 [I-104] | 3.28 | 90 to 100 | 90 to 100 | 80 to 89 | 90 to 100 | 90 to 100 | 90 to 100 | 80 to 89 | – | – | – |
